Data reported in DBAASP.
Values after ≈ are worked out from the molar mass of the structure shown.

Key:
Assay in all cases: ≥ marks a high value that may be exact or a test limit, other limits are often not marked, values filed in µg/mL are converted to µM
[1] = tested on: Staphylococcus aureus NCTC 12493
[2] = tested on: Klebsiella pneumoniae ATCC 43816
[3] = tested on: Candida albicans NCTC 1467
[4] = tested on: Pseudomonas aeruginosa ATCC 27853
[5] = tested on: Escherichia coli NCTC 10418
[6] = tested on: Staphylococcus aureus NCTC 10788
[7] = tested on: Staphylococcus haemolyticus 527
Bacillus subtilis 168 HT = tested on: Bacillus subtilis 168 HT
[8] = tested on: Staphylococcus aureus ST88
[9] = tested on: Escherichia coli K12 MG1655
[10] = tested on: Pseudomonas aeruginosa H547
[11] = tested on: Pseudomonas aeruginosa H374
[12] = tested on: Salmonella enterica subsp. enterica serovar Typhimurium ATCC 14028s
Escherichia coli UB1005 = tested on: Escherichia coli UB1005
[13] = tested on: Pseudomonas aeruginosa K799
[14] = tested on: Burkholderia cepacia ATCC 25416
[15] = tested on: Pseudomonas aeruginosa Z61
[16] = tested on: Pseudomonas aeruginosa H744
[17] = tested on: Vibrio alginolyticus KCCM 2928
[18] = tested on: Edwardsiella piscicida FSW 910410
[19] = tested on: Vibrio anguillarum TR14001NF
[20] = tested on: Vibrio campbellii KCCM 40684
[21] = tested on: Streptococcus parauberis KSP 28
[22] = tested on: Streptococcus iniae FP5228
[23] = tested on: Vibrio ordalii KCCM 41669
[24] = tested on: Vibrio harveyi ATCC 14126
[25] = tested on: Streptococcus parauberis PH0710
[26] = tested on: Candida viswanathii NBRC 10321
[27] = tested on: Staphylococcus epidermidis NBRC 12993
[28] = tested on: Aspergillus oryzae NBRC 100959
[29] = tested on: Escherichia coli NBRC 3972
[30] = tested on: Micrococcus luteus NBRC 3333
[31] = tested on: Saccharomyces cerevisiae NBRC 10217
[32] = tested on: Staphylococcus aureus NBRC 12732
[33] = tested on: Escherichia coli NBRC 14237
Ralstonia solanacearum = tested on: Ralstonia solanacearum
[34] = tested on: Pseudomonas syringae pv. tomato DC3000
Escherichia coli BL21 = tested on: Escherichia coli BL21
[35] = tested on: Xanthomonas oryzae pv. oryzae
Bacillus subtilis 168 = tested on: Bacillus subtilis 168
[36] = tested on: Xanthomonas campestris pv. holcicola
[37] = tested on: Clavibacter michiganensis subsp. michiganensis

Structure (SMILES): CC[C@H](C)[C@@H]1NC(=O)[C@H](CC(C)C)NC(=O)[C@@H](NC(=O)[C@H](Cc2ccccc2)NC(=O)[C@H](CC(C)C)NC(=O)[C@H](CCCCN)NC(=O)[C@H](Cc2ccc(O)cc2)NC(=O)[C@H](CC(C)C)NC(=O)[C@@H](NC(=O)[C@H](CCCCN)NC(=O)[C@@H](NC(=O)[C@@H](NC(=O)[C@H](C)NC(=O)CNC(=O)[C@H](CC(C)C)NC(=O)[C@H](C)NC(=O)[C@@H](N)Cc2ccccc2)C(C)C)[C@@H](C)O)C(C)C)CSSC[C@@H](C(=O)O)NC(=O)[C@H](CCCCN)NC(=O)[C@H](CCCN=C(N)N)NC(=O)[C@H]([C@@H](C)O)NC1=O [FALGAVTKVLYKLFCLITRKC]
- MIC [1]: 8 µM (≈ 19.1 µg/mL)
- MIC [2]: ≥ 128 µM
- MIC [3]: ≥ 64 µM
- MIC [4]: > 128 µM
- MIC [5]: ≥ 128 µM
- MIC [6]: 4 µM (≈ 9.54 µg/mL)

Structure (SMILES): CC[C@H](C)[C@H](N)C(=O)NCC(=O)N[C@@H](CCCN=C(N)N)C(=O)N[C@@H](Cc1cnc[nH]1)C(=O)N[C@@H](Cc1ccccc1)C(=O)N[C@@H](CCCCN)C(=O)N[C@@H](CCCN=C(N)N)C(=O)N[C@@H](CCCN=C(N)N)C(=O)N[C@@H](CC(N)=O)C(=O)N[C@@H](CO)C(=O)N[C@H](C(=O)N[C@@H](Cc1c[nH]c2ccccc12)C(=O)NCC(=O)N[C@H](C(=O)N[C@@H](CS)C(=O)N[C@@H](Cc1c[nH]c2ccccc12)C(=O)N[C@@H](Cc1ccccc1)C(=O)O)[C@@H](C)CC)[C@@H](C)CC [IGRHFKRRNSIWGICWF]
- MIC [7]: 14.8 µM (≈ 32.2 µg/mL)
- MIC (Bacillus subtilis 168 HT): 14.8 µM (≈ 32.2 µg/mL)
- MIC [8]: ≥ 100 µM
- MIC [9]: 14.8 µM (≈ 32.2 µg/mL)

Structure (SMILES): CC[C@H](C)[C@H](NC(=O)CNC(=O)[C@@H](NC(=O)[C@H](CCCCN)NC(=O)[C@H](CCCCN)NC(=O)[C@@H](NC(=O)[C@H](Cc1ccccc1)NC(=O)[C@H](CCCCN)NC(=O)[C@H](CCCCN)NC(=O)[C@H](Cc1c[nH]c2ccccc12)NC(=O)[C@H](CCCCN)NC(=O)[C@@H](N)CCCCN)[C@@H](C)CC)[C@@H](C)CC)C(=O)NCC(=O)N[C@@H](C)C(=O)N[C@H](C(=O)N[C@@H](CC(C)C)C(=O)N[C@H](C(=O)N[C@H](C(=O)N1CCC[C@H]1C(=O)NCC(=O)N[C@@H](C)C(=O)N[C@@H](CCCCN)C(=O)N[C@@H](CCCCN)C(=O)O)[C@@H](C)O)[C@@H](C)O)C(C)C [KKWKKFIKKIGIGAVLTTPGAKK]
- MIC [10]: 6.3 µM (≈ 16 µg/mL)
- MIC [11]: 3.15 µM (≈ 8 µg/mL)
- MIC [12]: 1.57 µM (≈ 4 µg/mL)
- MIC (Escherichia coli UB1005): 1.57 µM (≈ 4 µg/mL)
- MIC [13]: 25.2 µM (≈ 64 µg/mL)
- MIC [14]: 25.2 µM (≈ 64 µg/mL)
- MIC [15]: 12.6 µM (≈ 32 µg/mL)
- MIC [16]: 1.57 µM (≈ 4 µg/mL)

Structure (SMILES): CC[C@H](C)[C@H](NC(=O)[C@H](CCCCN)NC(=O)[C@@H](NC(=O)[C@@H](N)Cc1ccccc1)[C@@H](C)O)C(=O)N[C@@H](Cc1ccc(O)cc1)C(=O)NCC(=O)N[C@@H](CO)C(=O)N[C@@H](CCCN=C(N)N)C(=O)N[C@@H](CC(C)C)C(=O)N[C@@H](CCC(N)=O)C(=O)N[C@@H](CCCCN)C(=O)N[C@H](C(=O)N[C@@H](CC(C)C)C(=O)NCC(=O)N[C@@H](CC(N)=O)C(=O)O)C(C)C [FTKIYGSRLQKVLGN]
- MIC [17]: ≥ 205 µM
- MIC [18]: ≥ 290 µM
- MIC [19]: ≥ 290 µM
- MIC [20]: ≥ 51.3 µM
- MIC [21]: ≥ 290 µM
- MIC [22]: ≥ 51.3 µM
- MIC [23]: ≥ 205 µM
- MIC [24]: ≥ 51.3 µM
- MIC [25]: ≥ 103 µM

Structure (SMILES): CC[C@H](C)[C@H](NC(=O)[C@H](CC(C)C)NC(=O)[C@@H](N)CCCN=C(N)N)C(=O)N[C@@H](CCCCN)C(=O)N[C@@H](CCCN=C(N)N)C(=O)N[C@@H](Cc1ccc(O)cc1)C(=O)N[C@@H](CC(C)C)C(=O)N[C@@H](CCCN=C(N)N)C(=O)N[C@@H](CCCN=C(N)N)C(=O)N[C@@H](CCSC)C(=O)N[C@@H](Cc1c[nH]c2ccccc12)C(=O)O [RLIKRYLRRMW]
- MIC [26]: ≥ 62.9 µM
- MIC [27]: ≥ 126 µM
- MIC [28]: ≥ 126 µM
- MIC [29]: ≥ 503 µM
- MIC [30]: ≥ 62.9 µM

Structure (SMILES): CC[C@H](C)[C@H](NC(=O)[C@@H](N)[C@@H](C)O)C(=O)N[C@@H](CC(N)=O)C(=O)N[C@@H](CCCCN)C(=O)N[C@@H](CCCCN)C(=O)N[C@@H](Cc1ccccc1)C(=O)N[C@@H](CCCN=C(N)N)C(=O)N[C@@H](Cc1c[nH]c2ccccc12)C(=O)N[C@@H](Cc1cnc[nH]1)C(=O)NCC(=O)N[C@@H](CCCCN)C(=O)N[C@@H](CCCN=C(N)N)C(=O)N[C@@H](CCCCN)C(=O)N[C@@H](Cc1c[nH]c2ccccc12)C(=O)N[C@@H](Cc1c[nH]c2ccccc12)C(=O)N[C@@H](CC(C)C)C(=O)N[C@@H](CCCN=C(N)N)C(=O)N[C@@H](Cc1ccccc1)C(=O)N[C@H](C(=O)N[C@@H](CCCCN)C(=O)N[C@@H](CCC(N)=O)C(=O)O)C(C)C [TINKKFRWHGKRKWWLRFVKQ]
- MIC [31]: 6.25 µM (≈ 17.8 µg/mL)
- MIC [32]: 3.12 µM (≈ 8.89 µg/mL)
- MIC [33]: 3.12 µM (≈ 8.89 µg/mL)

Structure (SMILES): CC[C@H](C)[C@H](NC(=O)CNC(=O)[C@H](C)NC(=O)CN)C(=O)NCC(=O)N1CCC[C@H]1C(=O)NCC(=O)N[C@@H](Cc1cnc[nH]1)C(=O)N[C@@H](CCCN=C(N)N)C(=O)N[C@@H](CCCN=C(N)N)C(=O)N[C@H](C(=O)N[C@@H](Cc1c[nH]c2ccccc12)C(=O)N[C@@H](CCCN=C(N)N)C(=O)N[C@@H](CCCN=C(N)N)C(=O)N[C@@H](Cc1c[nH]c2ccccc12)C(=O)N1CCC[C@H]1C(=O)N[C@@H](CCCN=C(N)N)C(=O)N[C@@H](CCCN=C(N)N)C(=O)N[C@@H](CCCN=C(N)N)C(=O)N[C@@H](Cc1c[nH]c2ccccc12)C(=O)N[C@@H](CCCN=C(N)N)C(=O)O)[C@@H](C)O [GAGIGPGHRRTWRRWPRRRWR]
- MIC (Ralstonia solanacearum): 8 µM (≈ 21.4 µg/mL)
- MIC [34]: 4 µM (≈ 10.7 µg/mL)
- MIC (Escherichia coli BL21): 16 µM (≈ 42.7 µg/mL)
- MIC [35]: 4 µM (≈ 10.7 µg/mL)
- MIC (Bacillus subtilis 168): 16 µM (≈ 42.7 µg/mL)
- MIC [36]: 16 µM (≈ 42.7 µg/mL)
- MIC [37]: 16 µM (≈ 42.7 µg/mL)
